From patent US9233954B2, “Organic amine salts of Azilsartan, preparation method and use thereof” (Jiangsu Hansoh Pharmaceutical Co., Ltd., priority 2011, dated 2016)

Legend:
[1] = Hygroscopicity test; format: physicochemical; settings: 25° C.±1° C., RH 80%±2%, 24 h
Protocol: 1. A dried glass weighing bottle (Outer diameter […]) with a plug was put into an artificial climate box under the temperature of 25° C.±1° C. and relative humidity (RH) of 80%±2% the day before and then weighed precisely (m1).
2. The testing sample was weighed precisely (m2) and lain into the weighing bottle. The thickness of the test sample was about 1 mm.
3. The uncovered weighing bottle and its plug were placed under the above constant temperature and humidity conditions for 24 h.
4. The weighing bottle was covered and weighed precisely (m3).
Calculation formula: Percent of weight increase=(m3−m2)/(m2−m1)*100%
5. Definition of the weight increase of the hygroscopicity
Deliquescence: absorbing enough water to form liquid.
High hygroscopicity: the weight increase of the hygroscopicity is no less than 15%
Having hygroscopicity: the weight increase of the hygroscopicity is between 15% and 2%
Slight hygroscopicity: the weight increase of the hygroscopicity is between 2% and 0.2%
No or almost no hygroscopicity: the weight increase of the hygroscopicity is less than 0.2%

[2] = system: blood pressure of SHR rats; assay: Antihypertensive effect test for spontaneously hypertensive (SHR) rats; format: in vivo; settings: 10 mg/kg
Protocol: Antihypertensive Effect Test For Spontaneously Hypertensive (SHR) Rats
38 of 25 week old SHR male rats were randomly divided into 4 groups according to the initial blood pressure, with 6 for the control group (solvent) and 8 for other groups. 10 mg/kg of example 2 compound (Choline Azilsartan), example 4 compound (Azilsartan ethanolamine salts) and control (Azilsartan medoxomil potassium salt) were continuously administered, respectively. The solvent control group was administered solvent. The administration volume was 5 ml/kg and the period was 2 weeks.

[3] = rat, in vivo, po
Protocol: Drug Metabolism Test of Sprague Dawley (SD) Rats after Administration
Twelve SD rats that weighed 200-250 g were randomly divided into two groups with each group having 6 rats, half male and half female. […] 0.5 ml blood were collected from orbit before administration and at 0.5, 1.0, 2.0, 3.0, 4.0, 5.0, 7.0, 10, 24 and 48 h after administration. Plasma concentration of Azilsartan (TAK-536), M1 (product of decarboxylation of Azilsartan) and M2 (product of O-dealkylation) was measured.

[4] = system: hypertension rats induced by Angiotensin II; assay: Effect on the hypertension rats induced by angiotensin II (DSI telemetry); format: in vivo, Sprague-Dawley rats; settings: for The average MBP over 23 hours before administration: baseline before single intragastric dose; for The average MBP over 23 hours before administration / Average blood pressure 1 hr after administration / Average blood pressure 2 hr after administration / Average blood pressure 3 hr before administration / Average blood pressure 7 hr after administration / Average blood pressure 13 hr after administration / Average blood pressure 13 hr before administration / Average blood pressure 18 hr after administration / Average blood pressure 23 hr after administration / Average blood pressure 23 hr before administration / The average MBP over 23 hours after administration: Mean±S.E., N=8; for Average ratio of reduction of the average blood pressure: average value after administration over 23 hours
Protocol: The Effect on the Hypertension Rats Induced by Angiotensin II
The dosage of angiotensin II was determined according to literature (Harrison-Bernard L M, Zhuo J, Kobori H, Ohishi M, Navar L G. Intrarenal A T (1) receptor and ACE binding in ANG II-induced hypertensive rats. Am. J. Physiol. Renal Physiol. 2002 January; 282(1):F19-25; Diz D I, Baer P G, Nasjletti A. Angiotensin II-induced hypertension in the rat. Effects on the plasma concentration, renal excretion, and tissue release of prostaglandins. J. Clin. Invest. 1983 August; 72(2):466-77.). Angiotensin II was precisely weighed and diluted with sterile saline up to a concentration of 14.4 mg/mL, then mixed slightly until clear and stored at −20° C. in the dark.
HS-10149 suspension: the compounds were precisely weighed and diluted with 2% of Ceolus suspension in a gradient of 0.20 mg/ml, 0.06 mg/ml, 0.02 mg/ml, then the suspension was stirred until dissolution and stored at 4° C. in the dark. The sample was warmed to room temperature in advance before administration and mixed to uniform.
The animals with required weight (female: 230-250 g, male: 200-220 g) were selected after adaptation for one week. The male rats were subjected to combined anesthesia of ketamine (44 mg/kg, im.) and 2% pentobarbital sodium solution (30 mg/kg, ip), and the female rates were narcotized with 2% pentobarbital sodium solution (40 mg/kg, ip). The implants were implanted on day 0 and the blood pressure was continuously monitored for 24 hours from the 7th day after implantation of a micro osmotic pump. The animals with mean systolic blood pressure (MSBP) up to 140 mmHg over 24 hours were considered as standard screening animals. The qualified animals were used in the test and the unqualified animals were excluded.
The qualified animals were divided into groups according to their MSBP over 24 hours, 8 animals for each group with half female and half male. 8 animals for each group met the requirement of statistical tests and the requirement of pharmacodynamics guiding principles.
After grouping, the solvent control, low, middle and high dosage animal groups were intragastrically administered with 2% Ceolus, 0.1 mg/kg, 0.3 mg/kg and 1.0 mg/kg of HS-10149, respectively. The administration time was 10:00 and 10:30 a.m. and the administration volume was 5 mL/kg.
(4) Experimental Process Healthy animals were implanted with implants at day 0 and a micro osmotic pump was implanted subcutaneously at day 8. The blood pressure was monitored for 24 hours from the 15th day and the animals with qualified blood pressure were selected to test. Positive drug or test sample was administered once at 10:00 a.m. on the 16th day and the blood pressure was monitored after administration for 24 hours. At the end of the test, the animals were sacrificed by excessive carbon dioxide. 5. Handling and Analysis of Data
The data were recorded every 5 s automatically by the DSI remote sensing pressure measuring device. The mean value calculated within an hour as unit by the software was considered as initial data.

In the case of `CCOc1nc2cccc(C(=O)O)c2n1Cc1ccc(-c2ccccc2-c2noc(=O)[nH]2)cc1.CCOc1nc2cccc(C(=O)[O-])c2n1Cc1ccc(-c2ccccc2-c2noc(=O)[nH]2)cc1.C[N+](C)(C)CCO` [Example 2], the “Hygroscopicity (percent of weight increase)” value [1] is reported as 0.02%, the “Conclusion (hygroscopic or not)” value ([1]; listed as Example 2 Compound) is reported as “No” and the “Conclusion (hygroscopic or not)” value ([1]; listed as example 2 compound) is reported as “not hygroscopic”. The “Antihypertensive effect compared with control (Azilsartan medoxomil potassium salt)” value ([2]; SHR rats, 2 weeks) was “superior to the antihypertensive effect of control”, the “Antihypertensive effect, ranking under the same dosage” value ([2]; SHR rats, 2 weeks) was “optimal” and the “Effect on blood pressure of SHR rats compared with solvent control” value ([2]; continuously administered for one or two weeks, FIG. 4) was “reduce the blood pressure of SHR rats significantly”. The “Increase of AUC of Azilsartan acid in the plasma” value [3] was 70%, the “Increase of Cmax of Azilsartan acid in the plasma” value [3] was 98% and the “The average MBP over 23 hours before administration” value ([4]; 0.1 mg/kg group) was 146 ± 5 mmHg. The “Average blood pressure 1 hr after administration” value (from here on “Average blood pressure 1 hr”) ([4]; 0.1 mg/kg group) was 128 ± 8, the “Average blood pressure 2 hr after administration” value (from here on “Average blood pressure 2 hr”) ([4]; 0.1 mg/kg group) was 102 ± 9 and the “Average blood pressure 3 hr before administration” value ([4]; 0.1 mg/kg group) was 128 ± 9. For the same compound, the “Average blood pressure 7 hr after administration” value (from here on “Average blood pressure 7 hr”) ([4]; 0.1 mg/kg group) was 91 ± 5, the “Average blood pressure 13 hr after administration” value ([4]; 0.1 mg/kg group) was 110 ± 3 and the “Average blood pressure 13 hr before administration” value ([4]; 0.1 mg/kg group) was 144 ± 7. For the same compound, the “Average blood pressure 18 hr after administration” value (from here on “Average blood pressure 18 hr”) ([4]; 0.1 mg/kg group) was 114 ± 3, the “Average blood pressure 23 hr after administration” value ([4]; 0.1 mg/kg group) was 109 ± 5 and the “Average blood pressure 23 hr before administration” value ([4]; 0.1 mg/kg group) was 142 ± 8. The “The average MBP over 23 hours after administration” value ([4]; 0.1 mg/kg single intragastric dose) was 110 ± 3 mmHg, the “Antihypertension effect in the hypertension rat models induced by angiotensin II” value ([4]; 0.1 mg/kg to 1.0 mg/kg) was “significant antihypertension effect” and the “Average ratio of reduction of the average blood pressure” value ([4]; 0.1 mg/kg) was 24.7%. The “The average MBP over 23 hours before administration” value ([4]; 0.3 mg/kg group) was 145 ± 5 mmHg, the “Average blood pressure 1 hr” value ([4]; 0.3 mg/kg group) was 119 ± 11 and the “Average blood pressure 2 hr” value ([4]; 0.3 mg/kg group) was 83 ± 6. For the same compound, the “Average blood pressure 3 hr before administration” value ([4]; 0.3 mg/kg group) was 124 ± 10, the “Average blood pressure 7 hr” value ([4]; 0.3 mg/kg group) was 77 ± 4 and the “Average blood pressure 13 hr after administration” value ([4]; 0.3 mg/kg group) was 91 ± 8. The “Average blood pressure 13 hr before administration” value ([4]; 0.3 mg/kg group) was 150 ± 6, the “Average blood pressure 18 hr” value ([4]; 0.3 mg/kg group) was 108 ± 10 and the “Average blood pressure 23 hr after administration” value ([4]; 0.3 mg/kg group) was 93 ± 3. The “Average blood pressure 23 hr before administration” value ([4]; 0.3 mg/kg group) was 147 ± 8, the “The average MBP over 23 hours after administration” value ([4]; 0.3 mg/kg single intragastric dose) was 88 ± 7 mmHg and the “Average ratio of reduction of the average blood pressure” value ([4]; 0.3 mg/kg) was 39.3%. The “The average MBP over 23 hours before administration” value ([4]; 1.0 mg/kg group) was 147 ± 5 mmHg, the “Average blood pressure 1 hr” value ([4]; 1.0 mg/kg group) was 118 ± 6 and the “Average blood pressure 2 hr” value ([4]; 1.0 mg/kg group) was 85 ± 5. The “Average blood pressure 3 hr before administration” value ([4]; 1.0 mg/kg group) was 129 ± 9, the “Average blood pressure 7 hr” value ([4]; 1.0 mg/kg group) was 74 ± 4 and the “Average blood pressure 13 hr after administration” value ([4]; 1.0 mg/kg group) was 76 ± 6. The “Average blood pressure 13 hr before administration” value ([4]; 1.0 mg/kg group) was 149 ± 7, the “Average blood pressure 18 hr” value ([4]; 1.0 mg/kg group) was 80 ± 5 and the “Average blood pressure 23 hr after administration” value ([4]; 1.0 mg/kg group) was 81 ± 5. For the same compound, the “Average blood pressure 23 hr before administration” value ([4]; 1.0 mg/kg group) was 146 ± 9, the “The average MBP over 23 hours after administration” value ([4]; 1.0 mg/kg single intragastric dose) was 81 ± 5 mmHg and the “Average ratio of reduction of the average blood pressure” value ([4]; 1.0 mg/kg) was 44.9%. The Minimum effective dose ([4]; single intragastric administration) was 0.1 mg/kg and the “Duration of the effect after single administration” value ([4]; single intragastric administration, 0.1-1.0 mg/kg) was “about 23 hours”.
